# Assay results published in patent US8017786B2, “Substituted β-phenyl-α-hydroxy-propanoic acid, synthesis method and use thereof” (Northwest University, priority 2006, dated 2011).
# Experiments:
# Type in all cases: in vivo, rat
# MMP-2 = experiment: Immunohistochemistry protein expression in I/R myocardial tissue: MMP-2; conditions: for MMP-2 protein expression, OD value: 5 days, ischemia 30 min, reperfusion 2 h
# Method: (§1) 52 SD rats having a body weight of 220±20 g were randomly divided into model control group, salviannic acid injection group (in 1 mL/kg), and group of bornyl β-(3,4-dihydroxylphenyl)-α-hydroxylpropionate ester at a small, middle and large dose (ip 5, 15, 35 mg/kg). The rats of the normal group and the model control group were ip administered with equal-volume of physiologic saline. The rats of all groups were administered for consecutive 5 days. When the rats were administered for the last time, they were simultaneously anesthetized with 1.5% pentobarbital sodium (ip 45 mg/kg), then a catheter was inserted into the right carotid artery, and connected via a transducer to an eight-channeled physiological recorder. Tracheal cannula was performed, and the ventilation rate was maintained at 60 times/min. The chest was opened, a 6/0 suture was used to form a loop at a site 1˜2 mm from the root of the anterior descending coronary artery, and a plastic pipe was introduced through the loop, then the loop was tightened up. The change of electrocardiogram was observed. An increase or decrease of ST indicated the success of ligation. The color of the myocardial tissue below the ligation suture became darker. 30 minutes later, the plastic pipe was pulled out to allow coronary artery blood flowing again and cause hyperemia of local tissue during reperfusion. For the groups subjected to ischemia for 30 min and reperfusion for 30 min, the myocardial infarction areas were recorded before the test, after ischemia for 1 min and 30 min, and after reperfusion for 30 min; for the groups subjected to ischemia for 30 min and reperfusion for 2 h, cardiac tissue samples were taken and fixed using 10% formalin, embedded with paraffin, serially sliced into sections with a thickness of 4 μm, and separately subjected to immunohistochemistry tests; the rats of the sham operation group were subjected only to the introduction of suture but their coronary arteries were not ligated.
# (§2) Standard immunohistochemistry ABC and SP methods were employed for staining. Bax: anti-rabbit polyclonal antibody (Santa CruzBio. Inc.) at a dilution of 1:200; […]: anti-rabbit polyclonal antibody (TBD Tianjin Biotechnological Center). At a dilution of […]; caspase-3: anti-rabbit polyclonal antibody (Normarkers Fromont, Calif.), at a dilution of 1:200; MMP-2: anti-murine monoclonal antibody (NormarkersFromont, Calif.) at a dilution of 1:200; PPARγ: anti-caprine polyclonal antibody (Santa Cruz Bio. Inc.), at a dilution of 1:500. The specific procedures were performed in accordance with the instructions of the ABC and SP kits, DAB was used for color development, and neutral resin was used for mounting. PBS was used instead of the first antibody as a negative control. Cells with positive expression of the test polypeptides were of brown-yellow color, with MMP-2 protein being present in acytoplasm, Bcl-2 expressed in nuclear membrane and cytoplasm, Bax mainly in cytoplasm and partially in nucleus, and caspase-3 mainly in nucleus and partially in cytoplasm. CMIAS image analysis system was used for random selection of fields of slices and automatic selection of sites for analysis, and statistic analysis was performed by using mean optical density values or integral optical density values of the obtained myocardial tissue slices.
# [1] = system: creatine kinase isoenzyme (CK-MB); experiment: Serum CK-MB activity in rats with myocardial ischemia; conditions: for CK-MB: serum, 24 h after ligation
# Method: At 0.5 h after the rats of these groups were administered intragastrically, the standard II lead electrocardiogram (before modeling) was recorded, and the height of ST-T segment was measured. The rats of sham operation group were then subjected to coronary artery braid without ligation, and the rats of other groups were subjected to coronary artery ligation in accordance with the following method to establish cute myocardial ischemia models. The rats were subjected to etherization, fixed at supine position, and their normal electrocardiograms (before modeling) were recorded. The skin of left thorax was incised under aseptic conditions, the 4th intercostal muscles were isolated in blunt way, the heart was extruded by light pressure to the right thorax, the left anterior descending coronary artery was ligated at a position 2˜3 mm departing from the left coronary artery origin and between the pulmonary conus and the left auricle of heart, then the heart was sent back to thorax cavity immediately and sutured the incision. Penicillin was smeared topically for the prevention of infections. After operation, the electrocardiogram of postischemia was recorded immediately (at 0 min after modeling), and the height of ST-T segment was measured.
# Bcl-2 = experiment: Immunohistochemistry protein expression in I/R myocardial tissue: Bcl-2; conditions: for Bcl-2 protein expression, OD value: 5 days, ischemia 30 min, reperfusion 2 h
# Method: as §1, §2
smiles,measurement,setting,value
"CC1(C)C2CCC1(C)C(OC(=O)C(O)Cc1ccc(O)c(O)c1)C2 (stereo not drawn) [bornyl salvianate ester, bornyl β-(3,4-dihydroxylphenyl)-α-hydroxylpropionate ester]","MMP-2 protein expression, OD value",MMP-2; 5 mg/kg ip,0.14 ± 0.05
same,"MMP-2 protein expression, OD value",MMP-2; 15 mg/kg ip,0.14 ± 0.03
same,"MMP-2 protein expression, OD value",MMP-2; 35 mg/kg ip,0.11 ± 0.03
same,MMP-2 protein (in words),MMP-2; myocardial I/R,decrease of MMP-2 protein
same,CK-MB,[1]; 10 mg/kg intragastric,1267.0 ± 274.4 U/L
same,CK-MB,[1]; 20 mg/kg intragastric,1074.1 ± 116.8 U/L
same,CK-MB,[1]; 40 mg/kg intragastric,906.3 ± 99.9 U/L
same,activity of creatine kinase isoenzyme (CK-MB) (in words),"[1]; all dose groups, 24 h later",decreased
same,"Bcl-2 protein expression, OD value",Bcl-2; 5 mg/kg ip,0.15 ± 0.03
same,"Bcl-2 protein expression, OD value",Bcl-2; 15 mg/kg ip,0.15 ± 0.06
same,"Bcl-2 protein expression, OD value",Bcl-2; 35 mg/kg ip,0.21 ± 0.04
same,expression of Bcl-2 protein (in words),Bcl-2; myocardial cells I/R,increase the expression of Bcl-2 protein
